In patent publication US12091411B2, “IRAK degraders and uses thereof” (Kymera Therapeutics, Inc., priority 2022, dated 2024):
Like-named read-outs stand apart in the source and are kept apart here.

Molecular target: T1, IRAK4 (Homo sapiens, UniProt Q9NWZ3)
T1 construct: Degradation of IRAK4 in OCI-LY10 was quantitatively measured using Meso Scale Discovery technology; endogenous in cells; host or cells: OCI-LY10
T1 sequence (Q9NWZ3 1-460): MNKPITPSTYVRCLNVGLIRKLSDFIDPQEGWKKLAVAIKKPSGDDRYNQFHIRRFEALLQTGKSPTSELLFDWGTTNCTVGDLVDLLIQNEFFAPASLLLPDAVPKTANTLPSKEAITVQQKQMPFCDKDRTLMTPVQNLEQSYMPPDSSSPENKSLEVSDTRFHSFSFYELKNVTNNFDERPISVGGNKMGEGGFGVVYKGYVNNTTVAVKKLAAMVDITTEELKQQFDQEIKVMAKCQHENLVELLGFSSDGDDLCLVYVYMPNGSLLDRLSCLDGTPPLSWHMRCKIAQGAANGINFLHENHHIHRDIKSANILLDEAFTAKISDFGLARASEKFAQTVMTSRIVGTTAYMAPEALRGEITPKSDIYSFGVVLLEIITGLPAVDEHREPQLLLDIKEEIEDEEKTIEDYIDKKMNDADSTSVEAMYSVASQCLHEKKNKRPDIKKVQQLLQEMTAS
Test: IRAK4 MSD Degradation in OCI-LY10
Format: cell-based
Details: OCI-LY10 cells, MSD
Procedure: Degradation of IRAK4 in OCI-LY10 was quantitatively measured using Meso Scale Discovery technology. […] Compounds were then added to the assay plates with a final top concentration of 1 to 10 μM in a 1:3 dilution series with total of 8 doses. The assay plates were then incubated for 4 to 24 hours at 37° C. under 5% CO2. […] To prepare MSD assay plates (Meso Scale Discovery Catalog number L15XA-3), the plates were coated with 2 μg/mL capture antibody (mouse Anti-IRAK4 antibody [2H9], ab119942) in PBS, at 40 μL/well. […] Cell lysates were then added to MSD assay plates and the plates were incubated at room temperature for 1 hour. The plates were then washed 3 times with 150 μL/well TBST buffer and 25 μL/well primary detection antibody (rabbit Anti-IRAK4 antibody [Y279], from Abcam. Catalog number ab32511, 1 μg/mL). The assay plates were then incubated at room temperature for 1 hour, washed 3 times with 150 μL/well TBST buffer and 25 μL/well secondary detection antibody, SULFO-TAG anti-rabbit antibody were added (anti-rabbit antibody from Meso Scale Discovery, Catalog number R32AB-1, 1 μg/mL). The assay plates were then incubated at room temperature for 1 hour, washed 3 times with 150 μL/well TBST buffer, and 150 μL/well MSD reading buffer (Meso Scale Discovery catalog number R92TC-2) was added. The plates were then analyzed by a MSD reader (Meso Scale Discovery, Model Quick Plex SQ 120). The data was then analyzed by software Prism 7.0 from GraphPad and the dose-depended IRAK4 degradation were fit using a three-parameter logistic equation to calculate DC50.
The letter codes for IRAK4 DC50 include: A (<0.01 μM); B (0.01 to <0.1 μM); C (0.1 to 0.2 μM); and D (>0.2 μM or not tested).

[1] = 4 hrs incubation, read-out: IRAK4 degradation in OCI-LY10 at 4 hrs: DC50
[2] = 24 hrs incubation, read-out: IRAK4 degradation in OCI-LY10 at 24 hrs: DC50

| Structure (SMILES) | DC50 [1] [nM] | DC50 [2] [nM] |
| --- | --- | --- |
| Cn1c(=O)n(C2CCC(=O)NC2=O)c2cccc(N3CCN([C@@H]4CCN(C[C@H]5CC[C@H](n6cc(NC(=O)c7cnn8ccc(N9C[C@H]%10C[C@@H]9CO%10)nc78)c(C(F)F)n6)CC5)C[C@H]4F)CC3)c21 (some centres unmarked) [I-683] | > 200 | < 10 |
| CN(C[C@H]1CC[C@H](n2cc(NC(=O)c3cnn4ccc(N5CCCC(C)(C)C5)nc34)c(C(F)F)n2)CC1)C1CCN(c2cccc3c2n(C)c(=O)n3C2CCC(=O)NC2=O)CC1(F)F (some centres unmarked) [I-517] | > 200 | > 200 |
| C[C@@H]([C@H]1CC[C@H](n2cc(NC(=O)c3cnn4cccnc34)c(C(F)F)n2)CC1)N(C)C1CCN(c2cccc3c2n(C)c(=O)n3C2CCC(=O)NC2=O)CC1 (some centres unmarked) [I-241] | > 200 | 100 to 200 |
| Cn1c(=O)n(C2CCC(=O)NC2=O)c2cccc(N3CC(CO[C@@H]4CCN(C[C@H]5CC[C@H](n6cc(NC(=O)c7cnn8ccc(N9C[C@H]%10CC9CO%10)nc78)c(C(F)F)n6)CC5)C[C@@H]4F)C3)c21 (some centres unmarked) [I-585] | > 200 | < 10 |
| CN(CC1CCN(c2cccc3c2n(C)c(=O)n3C2CCC(=O)NC2=O)CC1)c1ccc(-n2cc(NC(=O)c3cnn4cccnc34)c(C(F)F)n2)cc1 (centres unmarked) [I-700] | > 200 | – |
| Cn1c(=O)n(C2CCC(=O)NC2=O)c2cccc(C#CCN3CCN(C[C@H]4CC[C@H](n5cc(NC(=O)c6cnn7ccc(N8CCC8)nc67)c(C(C)(C)O)n5)CC4)CC3)c21 (some centres unmarked) [I-285] | > 200 | > 200 |
| Cn1c(=O)n(C2CCC(=O)NC2=O)c2cccc([C@H]3CCN(C[C@H]4CC[C@H](n5cc6cc(NC(=O)c7cccc(C#N)n7)ccc6n5)CC4)C[C@@H]3F)c21 (some centres unmarked) [I-626] | > 200 | > 200 |
| Cn1c(=O)n(C2CCC(=O)NC2=O)c2cccc(C#CCN3CCN(C[C@H]4CC[C@H](n5cc(NC(=O)c6cnn7ccc(N8CCOC9(CCC9)C8)nc67)c(C(F)F)n5)CC4)CC3)c21 (some centres unmarked) [I-287] | > 200 | < 10 |
| Cn1c(=O)n(C2CCC(=O)NC2=O)c2cccc(N3CC(O[C@H]4CCN(C[C@H]5CC[C@H](n6cc(NC(=O)c7cnn8ccc(N9C[C@H]%10C[C@@H]9CO%10)nc78)c(C(F)F)n6)CC5)C[C@H]4F)C3)c21 (some centres unmarked) [I-728] | > 200 | < 10 |
| C[C@@H]1CN(c2ccn3ncc(C(=O)Nc4cn([C@H]5CC[C@H](CN6CCN(CC#Cc7cccc8c7n(C)c(=O)n8C7CCC(=O)NC7=O)CC6)CC5)nc4C(F)F)c3n2)C[C@H](C)O1 (some centres unmarked) [I-429] | > 200 | > 200 |
| O=C1CCN(c2cccc(C#CCN3CCN(C[C@H]4CC[C@H](n5cc(NC(=O)c6cnn7ccc(N8C[C@H]9C[C@@H]8CO9)nc67)c(C(F)F)n5)CC4)CC3)c2)C(=O)N1 [I-123] | > 200 | > 200 |
| Cn1c(=O)n(C2CCC(=O)NC2=O)c2cccc(C#CCN3CCN(C[C@H]4CC[C@H](n5cc(NC(=O)c6cnn7ccc(N8CCC9(CC9)C8)nc67)c(C(F)F)n5)CC4)CC3)c21 (some centres unmarked) [I-224] | > 200 | 10 to 100 |
| COc1cc2nn([C@H]3CC[C@H](CN(C)C4CCN(c5cccc6c5n(C)c(=O)n6C5CCC(=O)NC5=O)CC4(F)F)CC3)cc2cc1NC(=O)c1cccc(C(F)(F)F)n1 (some centres unmarked) [I-475] | > 200 | > 200 |
| Cn1c(=O)n(C2CCC(=O)NC2=O)c2cccc(C3CCN(CC4COC5(C4)CN(C[C@H]4CC[C@H](n6cc(NC(=O)c7cnn8ccc(N9C[C@H]%10C[C@@H]9CO%10)nc78)c(C(F)F)n6)CC4)C5)CC3)c21 (some centres unmarked) [I-664] | > 200 | > 200 |
| CC(C)(O)c1cc2nn(C3CCC(CNCCCCCNc4cccc5c4C(=O)N(C4CCC(=O)NC4=O)C5=O)CC3)cc2cc1NC(=O)c1cccc(C(F)(F)F)n1 (centres unmarked) [I-142] | > 200 | < 10 |
| Cn1c(=O)n(C2CCC(=O)NC2=O)c2cccc(C#CCOC3CCN(C[C@H]4CC[C@H](n5cc(NC(=O)c6cnn7ccc(N8C[C@H]9C[C@@H]8CO9)nc67)c(C(C)(C)O)n5)CC4)CC3)c21 (some centres unmarked) [I-174] | > 200 | > 200 |
| Cc1cccc(C(=O)Nc2cc3cn([C@H]4CC[C@H](CN5CCN(c6cccc7c6n(C)c(=O)n7C6CCC(=O)NC6=O)CC5)CC4)nc3cn2)n1 (some centres unmarked) [I-692] | > 200 | < 10 |
| COc1ccc(C(F)(F)F)nc1C(=O)Nc1cc2cn([C@H]3CC[C@@H](CN4CCC5(CC4)CC(CNc4cccc6c4C(=O)N(C4CCC(=O)NC4=O)C6=O)C5)CC3)nc2cc1C(C)(C)O (some centres unmarked) [I-137] | > 200 | 10 to 100 |

Now from value to compound:

| DC50 [1] [nM] | DC50 [2] [nM] | Structure (SMILES) |
| --- | --- | --- |
| < 10 | > 200 | CCn1c(=O)n(C2CCC(=O)NC2=O)c2cccc(C#CCN3CCN(C[C@H]4CC[C@H](n5cc(NC(=O)c6cnn7ccc(N8C[C@H]9C[C@@H]8CO9)nc67)c(C(F)F)n5)CC4)CC3)c21 (some centres unmarked) [I-60] |
| 10 to 100 | > 200 | Cn1c(=O)n(C2CCC(=O)NC2=O)c2cccc(C#CCOC3C4CC3CN(C[C@H]3CC[C@H](n5cc(NC(=O)c6cnn7ccc(N8C[C@H]9C[C@@H]8CO9)nc67)c(C(F)F)n5)CC3)C4)c21 (some centres unmarked) [I-30] |
| > 200 | > 200 | CN(C[C@H]1CC[C@H](n2cc(NC(=O)c3cnn4cccnc34)c(C(F)F)n2)CC1)C1CCN(c2cccc3c2n(C)c(=O)n3C2CCC(=O)NC2=O)CC1O (some centres unmarked) [I-486] |
| > 200 | > 200 | COc1cc2nn([C@H]3CC[C@H](CN4CCC5(CC4)CCN(c4cccc6c4n(C)c(=O)n6C4CCC(=O)NC4=O)CC5)CC3)cc2cc1NC(=O)c1cncc(F)c1 (some centres unmarked) [I-83] |
| > 200 | > 200 | Cn1c(=O)n(C2CCC(=O)NC2=O)c2cccc(C#CCOC3CCN(C[C@H]4CC[C@H](n5cc(NC(=O)c6cnn7ccc(C8COCCN8)nc67)c(C(F)F)n5)CC4)CC3)c21 (some centres unmarked) [I-310] |
| > 200 | > 200 | COc1cc(NC(=O)c2cccc(C(F)(F)F)n2)cc2cn([C@H]3CC[C@H](CN4CCN(c5c(F)ccc6c5n(C)c(=O)n6C5CCC(=O)NC5=O)CC4)CC3)nc12 (some centres unmarked) [I-765] |
| > 200 | > 200 | CN(C[C@H]1CC[C@H](n2cc3cc(NC(=O)c4cccc(C(F)(F)F)n4)c(S(C)(=O)=O)cc3n2)CC1)C1CCN(c2cccc3c2n(C)c(=O)n3C2CCC(=O)NC2=O)CC1(F)F (some centres unmarked) [I-479] |
| > 200 | < 10 | Cn1c(=O)n(C2CCC(=O)NC2=O)c2cccc([C@H]3CCN(C[C@H]4CC[C@H](n5cc6cc(NC(=O)c7cccc(C#N)n7)ncc6n5)CC4)C[C@@H]3F)c21 (some centres unmarked) [I-638] |
| > 200 | > 200 | CN1CCOCC1c1ccn2ncc(C(=O)Nc3cn([C@H]4CC[C@H](CN5CCN(CC#Cc6cccc7c6n(C)c(=O)n7C6CCC(=O)NC6=O)CC5)CC4)nc3C(F)F)c2n1 (some centres unmarked) [I-302] |
| < 10 | > 200 | O=C1CCN(c2cncc3c(C#CCO[C@H]4CCN(C[C@H]5CC[C@H](n6cc(NC(=O)c7cnn8ccc(N9C[C@H]%10C[C@@H]9CO%10)nc78)c(C(F)F)n6)CC5)C[C@H]4F)cccc23)C(=O)N1 [I-46] |
| < 10 | > 200 | CN1C(=O)C(C2CCC(=O)NC2=O)c2cccc(N3CCN(CC4CCC(n5cc6cc(NC(=O)c7cccc(C(F)(F)F)n7)c(S(C)(=N)=O)cc6n5)CC4)CC3)c21 (centres unmarked) [I-129] |
| < 10 | > 200 | O=C1CCC(n2c(=O)n(C3CC3)c3c(C#CCN4CCN(C[C@H]5CC[C@H](n6cc(NC(=O)c7cnn8ccc(N9C[C@H]%10C[C@@H]9CO%10)nc78)c(C(F)F)n6)CC5)CC4)cccc32)C(=O)N1 (some centres unmarked) [I-4] |
| 10 to 100 | > 200 | Cn1c(=O)n(C2CCC(=O)NC2=O)c2cccc(C#CCN3C[C@@H]4C[C@H]3CN4C[C@H]3CC[C@H](n4cc(NC(=O)c5cnn6ccc(N7C[C@H]8C[C@@H]7CO8)nc56)c(C(F)F)n4)CC3)c21 (some centres unmarked) [I-50] |
| < 10 | > 200 | Cn1c(=O)n(C2CCC(=O)NC2=O)c2cccc(N3CCC(OC4CCN(C[C@H]5CC[C@H](n6cc(NC(=O)c7cnn8ccc(N9C[C@@H]%10C[C@H]9CO%10)nc78)c(C(F)F)n6)CC5)CC4)CC3)c21 (some centres unmarked) [I-159] |
| > 200 | > 200 | C[C@@H]([C@H]1C[C@H](c2cccc3c2n(C)c(=O)n3C2CCC(=O)NC2=O)C1)N1CCN(C[C@H]2CC[C@H](n3cc(NC(=O)c4cnn5ccc(N6C[C@H]7CC6CO7)nc45)c(C(F)F)n3)CC2)CC1 (some centres unmarked) [I-575] |
